Key:
[1] = tested on: TGF-beta-induced phosphorylation of Smad2 and Smad3 in Mv1-Lu cells; experiment: Inhibition of Smad2/3 phosphorylation in Mv1Lu cells (Example 35A); format: cell-based, mink Mustela vison; conditions: Neogale vison, Mv1-Lu cells, TGF-beta 1 5 ng/ml, phospho-Smad2/3 ELISA, read-out: TβR activity (Example 35A)
Description: Inhibition of Smad2/3 Phosphorylation in Mv1Lu Cells by TGF-bta Receptor I Kinase Inhibitors
This assay was used to determine the inhibitory potency of compounds on TGF-beta-induced phosphorylation of Smad2 (Ser465/467) and Smad3 (Ser423/425). Mv1-Lu cells (lung epithelial cell line from mink Mustela vison; ATCC number: CCL-64) were seeded in DMEM (Invitrogen) supplemented with 10% fetal bovine serum (Pan Biotech) at a defined cell density in 24-well or 96-well plates (24-well plate: 1.5×10^5 cells per well; 96-well plate: 4×10^4 cells per well). Cell cultures were incubated in DMEM at 37° C. and 10% CO2. On the next day, the medium was replaced and cells were serum-starved for 16-20 hours. The following day, serial dilutions of compounds were added to the wells, pre-incubated for 1.5 hrs before recombinant TGF-beta 1 ligand (final concentration 5 ng/ml; R&D systems) was added. After one hour of ligand stimulation, lysates were prepared and analyzed using an enzyme-linked immunosorbent assay kit (PathScan Phospho-Smad2 Kit, Cell Signaling Technologies). The ELISA detects phosphorylated Smad2 as well as phosphorylated Smad3 with the phospho-specific antibody. TGF-beta stimulated cells and unstimulated cells served as positive and negative controls (100% and background control). The concentration of the vehicle DMSO was kept constant at 0.2% (v/v) in all wells. Dose-response relationships were fitted using curve fitting algorithms of the RS1 statistics software package (Brooks Automation Inc. RS/1—Statistical Tools Handbook. Release 6.2) to determine the concentration at which half-maximal inhibition (IC50) of Smad2/3 phosphorylation was achieved.

GST-ALK5 = biological target: T1, GST-ALK5 (Homo sapiens, UniProt P36897); experiment: In-vitro (enzyme) kinase assay, 384-well flashplate (Example 36); format: biochemical; conditions: GST-ALK5, GST-SMAD2 substrate, 3 mM ATP, 30° C., 45 min; read-out: TβR activity (Example 36)
T1 sequence (P36897 34-503): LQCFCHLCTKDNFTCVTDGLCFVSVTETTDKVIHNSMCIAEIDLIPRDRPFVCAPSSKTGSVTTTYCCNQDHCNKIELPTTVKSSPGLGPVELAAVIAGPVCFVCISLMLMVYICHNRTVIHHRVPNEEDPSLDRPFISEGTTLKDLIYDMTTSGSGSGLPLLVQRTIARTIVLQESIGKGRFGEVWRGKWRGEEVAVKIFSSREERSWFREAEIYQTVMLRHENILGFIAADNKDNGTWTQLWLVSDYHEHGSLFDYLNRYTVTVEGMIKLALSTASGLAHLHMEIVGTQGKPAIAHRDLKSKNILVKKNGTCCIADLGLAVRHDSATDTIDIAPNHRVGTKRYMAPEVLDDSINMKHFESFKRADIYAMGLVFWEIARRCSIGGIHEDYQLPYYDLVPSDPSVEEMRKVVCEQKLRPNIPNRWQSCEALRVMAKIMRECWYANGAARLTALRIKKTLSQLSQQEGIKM
Description: In-vitro (Enzyme) Assay for Determination of the Efficacy of Inhibitors of the Inhibition of TGF-beta-Mediated Effects
The kinase assay was carried out as 384-well flashplate assay. 31.2 nM of GST-ALK5, 439 nM of GST-SMAD2 and 3 mM of ATP (with 0.3 μCi of ^33P-ATP/well) were incubated in a total volume of 35 μl (20 mM of HEPES, 10 mM of MgCl2, 5 mM of MnCl2, 1 mM of DTT, 0.1 of BSA, pH 7.4) without or with test substance (5-10 concentrations) at 30° C. for 45 min. The reaction was stopped using 25 μl of 200 mM EDTA solution, filtered with suction at room temperature after 30 min, and the wells were washed with 3 times 100 μl of 0.9% NaCl solution. Radioactivity was measured in the TopCount. The IC50 values were calculated using RS1.

COCCN1CCC(n2cc(-c3cncc(-c4cc(-c5ccccc5F)nc5ncccc45)c3)cn2)CC1 [compound 52, 2-(2-Fluoro-phenyl)-4-(5-{1-[1-(2-methoxy-ethyl)-piperidin-4-yl]-1H-pyrazol-4-yl}-pyridin-3-yl)-[1,8]naphthyridine]
IC50 [1]: < 0.1 µM | IC50 (GST-ALK5): < 0.1 µM

OCCN1CCC(n2cc(-c3cncc(-c4cc(-c5ccccc5F)nc5ncccc45)c3)cn2)CC1 [compound 53, 2-[4-(4-{5-[2-(2-Fluoro-phenyl)-[1,8]naphthyridin-4-yl]-pyridin-3-yl}-pyrazol-1-yl)-piperidin-1-yl]-ethanol]
IC50 [1]: < 0.1 µM | IC50 (GST-ALK5): < 0.1 µM

CN1CCN(c2nc(-c3cncc(-c4cc(-c5ccccc5F)nc5ncccc45)c3)no2)CC1 [compound 54, 2-(2-Fluoro-phenyl)-4-{5-[5-(4-methyl-piperazin-1-yl)-[1,2,4]oxadiazol-3-yl]-pyridin-3-yl}-[1,8]naphthyridine]
IC50 [1]: 1 to 10 µM | IC50 (GST-ALK5): < 0.1 µM

CN1CCC(n2cc(-c3cncc(-c4cc(-c5ccccc5F)nc5ncccc45)c3)nn2)CC1 [compound 55, 2-(2-Fluoro-phenyl)-4-{5-[1-(1-methyl-piperidin-4-yl)-1H-[1,2,3]triazol-4-yl]-pyridin-3-yl}-[1,8]naphthyridine]
IC50 [1]: < 0.1 µM | IC50 (GST-ALK5): < 0.1 µM

CN1CCN(c2nc(-c3cncc(-c4cc(-c5cc(Cl)ccc5F)nc5ncccc45)c3)no2)CC1 [compound 56, 2-(5-chloro-2-fluoro-phenyl)-4-{5-[5-(4-methyl-piperazin-1-yl)-[1,2,4]oxadiazol-3-yl]-pyridin-3-yl}-[1,8]naphthyridine]
IC50 [1]: 0.1 to 1 µM | IC50 (GST-ALK5): < 0.1 µM

CN1CCC(n2cc(-c3cncc(-c4cc(-c5cc(Cl)ccc5F)nc5ncccc45)c3)nn2)CC1 [compound 57, 2-(5-Chloro-2-fluoro-phenyl)-4-{5-[1-(1-methyl-piperidin-4-yl)-1H-[1,2,3]triazol-4-yl]-pyridin-3-yl}-[1,8]naphthyridine]
IC50 [1]: < 0.1 µM | IC50 (GST-ALK5): < 0.1 µM

CN1CCC(n2cc(-c3cncc(-c4cc(-c5cc(Cl)ccc5F)nc5ncccc45)c3)cn2)C1 (stereo not drawn) [compound 58, 2-(5-Chloro-2-fluoro-phenyl)-4-{5-[1-(1-methyl-pyrrolidin-3-yl)-1H-pyrazol-4-yl]-pyridin-3-yl}-[1,8]naphthyridine]
IC50 [1]: < 0.1 µM | IC50 (GST-ALK5): < 0.1 µM

CN1CCC(n2cc(-c3cncc(-c4cc(-c5ccccc5F)nc5ncccc45)c3)cn2)C1 (stereo not drawn) [compound 59, 2-(2-Fluoro-phenyl)-4-{5-[1-(1-methyl-pyrrolidin-3-yl)-1H-pyrazol-4-yl]-pyridin-3-yl}-[1,8]naphthyridine]
IC50 [1]: < 0.1 µM | IC50 (GST-ALK5): < 0.1 µM

CN1CCC(c2nc(-c3cncc(-c4cc(-c5cc(Cl)ccc5F)nc5ncccc45)c3)no2)CC1 [compound 61, 2-(5-Chloro-2-fluoro-phenyl)-4-{5-[5-(1-methyl-piperidin-4-yl)-[1,2,4]oxadiazol-3-yl]-pyridin-3-yl}-[1,8]naphthyridine]
IC50 [1]: 0.1 to 1 µM | IC50 (GST-ALK5): < 0.1 µM

CN1CCC(n2cc(-c3cncc(-c4cc(-c5cc(F)ccc5F)nc5ncccc45)n3)cn2)CC1 [compound 62, 2-(2,5-Difluoro-phenyl)-4-{6-[1-(1-methyl-piperidin-4-yl)-1H-pyrazol-4-yl]-pyrazin-2-yl}-[1,8]naphthyridine]
IC50 [1]: < 0.1 µM | IC50 (GST-ALK5): < 0.1 µM

CN1CCC(n2cc(-c3cncc(-c4cc(-c5ccccc5)nc5ncccc45)c3)cn2)CC1 [compound 63, 4-{5-[1-(1-Methyl-piperidin-4-yl)-1H-pyrazol-4-yl]-pyridin-3-yl}-2-phenyl-[1,8]naphthyridine]
IC50 [1]: 0.1 to 1 µM | IC50 (GST-ALK5): < 0.1 µM

CN1CC[C@@H](n2cc(-c3cncc(-c4cc(-c5ccccc5F)nc5ncccc45)c3)cn2)C1 [compound 64, 2-(2-Fluoro-phenyl)-4-{5-[1-((R)-1-methyl-pyrrolidin-3-yl)-1H-pyrazol-4-yl]-pyridin-3-yl}-[1,8]naphthyridine]
IC50 [1]: < 0.1 µM | IC50 (GST-ALK5): < 0.1 µM

CN1CC[C@@H](n2cc(-c3cncc(-c4cc(-c5cc(Cl)ccc5F)nc5ncccc45)c3)cn2)C1 [compound 65, 2-(5-Chloro-2-fluoro-phenyl)-4-{5-[1-((R)-1-methyl-pyrrolidin-3-yl)-1H-pyrazol-4-yl]-pyridin-3-yl}-[1,8]naphthyridine]
IC50 [1]: < 0.1 µM | IC50 (GST-ALK5): < 0.1 µM

CN1CC[C@H](n2cc(-c3cncc(-c4cc(-c5cc(Cl)ccc5F)nc5ncccc45)c3)cn2)C1 [compound 68, 2-(5-Chloro-2-fluoro-phenyl)-4-{5-[1-((S)-1-methyl-pyrrolidin-3-yl)-1H-pyrazol-4-yl]-pyridin-3-yl}-[1,8]naphthyridine]
IC50 [1]: < 0.1 µM | IC50 (GST-ALK5): < 0.1 µM

CN1CC[C@H](n2cc(-c3cncc(-c4cc(-c5ccccc5F)nc5ncccc45)c3)cn2)C1 [compound 69, 2-(2-Fluoro-phenyl)-4-{5-[1-((S)-1-methyl-pyrrolidin-3-yl)-1H-pyrazol-4-yl]-pyridin-3-yl}-[1,8]naphthyridine]
IC50 [1]: < 0.1 µM | IC50 (GST-ALK5): < 0.1 µM

Fc1ccccc1-c1cc(-c2cncc(-c3nccc(N4CCNCC4)n3)c2)c2cccnc2n1 [compound 71, 2-(2-fluoro-phenyl)-4-[5-(4-piperazin-1-yl-pyrimidin-2-yl)-pyridin-3-yl]-[1,8]naphthyridine]
IC50 [1]: 1 to 10 µM | IC50 (GST-ALK5): < 0.1 µM

Nc1ncc(-c2cc(-c3ccccc3F)nc3ncccc23)c2ccncc12 [compound 72, 4-[2-(2-fluoro-phenyl)-[1,8]naphthyridin-4-yl]-[2,7]naphthyridin-1-ylamine]
IC50 [1]: 0.1 to 1 µM | IC50 (GST-ALK5): < 0.1 µM

Nc1ncc(-c2cc(-c3cc(F)ccc3F)nc3ncccc23)c2ccncc12 [compound 73, 4-[2-(2,5-Difluoro-phenyl)-[1,8]naphthyridin-4-yl]-[2,7]naphthyridin-1-ylamine]
IC50 [1]: < 0.1 µM | IC50 (GST-ALK5): < 0.1 µM

CC(=O)Nc1ncc(-c2cc(-c3ccccc3F)nc3ncccc23)c2ccncc12 [compound 74, N-{4-[2-(2-fluoro-phenyl)-[1,8]naphthyridin-4-yl]-[2,7]naphthyridin-1-yl}-acetamide]
IC50 [1]: 1 to 10 µM | IC50 (GST-ALK5): 0.1 to 1 µM

Fc1ccccc1-c1cc(-c2cncc(-c3cnn(CCn4cccn4)c3)c2)c2cccnc2n1 [compound 77, 2-(2-Fluoro-phenyl)-4-{5-[1-(2-pyrazol-1-yl-ethyl)-1H-pyrazol-4-yl]-pyridin-3-yl}-[1,8]naphthyridine]
IC50 [1]: 1 to 10 µM | IC50 (GST-ALK5): 0.1 to 1 µM

NS(=O)(=O)c1ccc(-c2cncc(-c3cc(-c4ccccc4F)nc4ncccc34)c2)cc1 [compound 78, 4-{5-[2-(2-Fluoro-phenyl)-[1,8]naphthyridin-4-yl]-pyridin-3-yl}-benzenesulfonamide]
IC50 [1]: 0.1 to 1 µM | IC50 (GST-ALK5): < 0.1 µM

Fc1ccccc1-c1cc(-c2cncc(-n3cccn3)c2)c2cccnc2n1 [compound 79, 2-(2-Fluoro-phenyl)-4-(5-pyrazol-1-yl-pyridin-3-yl)-[1,8]naphthyridine]
IC50 [1]: 1 to 10 µM | IC50 (GST-ALK5): 0.1 to 1 µM

Fc1ccccc1-c1cc(-c2cncc(-c3cnc4[nH]ncc4c3)c2)c2cccnc2n1 [compound 80, 2-(2-Fluoro-phenyl)-4-[5-(1H-pyrazolo[3,4-b]pyridin-5-yl)-pyridin-3-yl]-[1,8]naphthyridine]
IC50 [1]: 0.1 to 1 µM | IC50 (GST-ALK5): 0.1 to 1 µM

Fc1ccccc1-c1cc(-c2cncc(-c3ccc(N4CCNCC4)nc3)n2)c2cccnc2n1 [compound 81, 2-(2-Fluoro-phenyl)-4-[6-(6-piperazin-1-yl-pyridin-3-yl)-pyrazin-2-yl]-[1,8]naphthyridine]
IC50 [1]: 0.1 to 1 µM | IC50 (GST-ALK5): < 0.1 µM
